Like-named read-outs stand apart in the source and are kept apart here.
Assays:
[1] = test system: U87MG pLVX-IDH2 R140Q-neo cells; assay: U87MG pLVX-IDH2 R140Q-neo cell based assay, 2-HG by LC-MS
IDH2 R140Q = IDH2 R140Q (Homo sapiens (Human), UniProt P48735, R140Q); assay: In vitro assay for IDH2m R140Q inhibitors, cofactor depletion assay; assay type: biochemical; conditions: IDH2 R140Q enzyme
Text: The following describes the experimental procedures used to obtain data on column 7 of Table 4.
The reaction is terminated by the addition of a second enzyme, diaphorase, and a corresponding substrate, resazurin. Diaphorase reduces resazurin to the highly fluorescent resorufin with the concomitant oxidation of NADPH to NADP, both halting the IDH2 reaction by depleting the available cofactor pool and facilitating quantitation of the amount of cofactor remaining after a specific time period through quantitative production of an easily detected fluorophore.
The test compound is then incubated for one hour at room temperature with the enzyme; before starting the IDH2 reaction with the addition of 10 μl of substrate mix containing 4 μM NADPH and 1.6 mM α-KG in the buffer described above. After a further 16 hours of incubation at room temperature, the reaction is halted and the remaining NADPH measured through conversion of resazurin to resorufin by the addition of 25 μl Stop Mix (36 μg/ml diaphorase enzyme and 60 μM resazurin; in buffer).

[2] = test system: Neurosphere cells (TS603); assay: Cellular assay for IDH1m R132H inhibitors, 2-HG by LC-MS in neurosphere cells (TS603); assay type: cell-based; conditions: 2-HG in media at 48 hours
Procedure: Cellular Assay for IDH1m R132H Inhibitors.
The following describes the experimental procedures that can be used to obtain data in column 4 of Table 5.
Neurosphere cells (TS603) are grown at 37 C in 5% CO2 in Stem Cell Technologies NeuroCult™ NS-A media supplemented with 1% Primocin, 1% Normocin, 0.0002% Heparin, 20 ng/mL EGF and 10 ng/mL bFGF. Cells are harvested, pelleted and resuspended in Accumax for cell dissociation and counting. Cells are counted and then resuspended in NeuroCult media with 2× heparin, EGF and bFGF at 4 million cells/10 mL media. 100 μl of cell solution are plated in each well of a 96 well with the exception of columns 1 and 12. Columns 1 and 12 contain 200 μL PBS. Compound dose responses are set up at a 2× concentration in Neurocult media without heparin, EGF and bFGF. The final concentration of DMSO is 0.25%. DMSO only control wells are plated in row H. The plates are then placed in the incubator for 48 hours. At 48 hours, 100 μl of media is removed from each well and analyzed by LC-MS for 2-HG concentrations. The cell plate is placed back in the incubator for another 24 hours. At 72 hours post compound addition, 10 mL/plate of Promega Cell Titer Glo reagent is thawed and mixed. The cell plate is removed from the incubator and allowed to equilibrate to room temperature. Then 100 μl of Promega Cell Titer Glo reagent is added to each well of media. The cell plate is then placed on an orbital shaker for 10 minutes and then allowed to sit at room temperature for 20 minutes. The plate is then read for luminescence with an integration time of 500 ms.

[3] = target: IDH1 wt/IDH1 R132H heterodimer (Homo sapiens (Human), UniProt O75874, R132H); assay: In vitro assay for IDH1m R132H inhibitors, IDH1 wt/IDH1 R132H heterodimer, NADPH depletion (diaphorase/resazurin); assay type: biochemical
Chain of IDH1 wt/IDH1 R132H heterodimer (O75874 whole entry R132H): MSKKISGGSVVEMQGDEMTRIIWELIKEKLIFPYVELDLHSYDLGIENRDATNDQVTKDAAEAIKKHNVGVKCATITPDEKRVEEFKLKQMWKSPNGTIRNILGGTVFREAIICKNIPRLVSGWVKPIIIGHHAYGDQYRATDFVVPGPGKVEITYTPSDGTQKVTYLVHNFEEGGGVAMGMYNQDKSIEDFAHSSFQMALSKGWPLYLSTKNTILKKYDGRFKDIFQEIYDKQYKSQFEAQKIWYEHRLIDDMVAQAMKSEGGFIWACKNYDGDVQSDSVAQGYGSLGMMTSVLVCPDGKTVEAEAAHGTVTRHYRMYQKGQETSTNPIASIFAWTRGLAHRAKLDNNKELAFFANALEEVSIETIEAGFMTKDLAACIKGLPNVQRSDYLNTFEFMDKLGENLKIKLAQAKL
Chain of IDH1 wt/IDH1 R132H heterodimer (O75874 whole entry, stated change not applied): as the sequence (O75874 whole entry R132H) above, with H132R counted along it
Procedure: The following describes the experimental procedures that can be used to obtain data on columns 2 and 4 of Table 4 and column 2 of Table 5.
In the primary reaction, the reduction of α-KG acid to 2-HG is accompanied by a concomitant oxidation of NADPH to NADP. The amount of NADPH remaining at the end of the reaction time is measured in a secondary diaphorase/resazurin reaction in which the NADPH is consumed in a 1:1 molar ratio with the conversion of resazurin to the highly fluorescent resorufin.
The mixture of compound, enzyme, and cofactor is pre-incubated at room temperature for 1 hr prior to the addition of alpha-ketoglutarate. To perform the secondary reaction, 10 uL of 1× buffer containing 36 μg/ml diaphorase and […] resazurin is added to the primary reaction and incubated for a further 5 minutes at 25° C. […] Compounds or compound dilutions are prepared in 100% DMSO concentration and diluted 1:50 into the final reaction. […] IC50s are determined.
IDH1 or IDH2 wildtype (wt) and mutant heterodimers are expressed and purified by methods known in the art. […] Co-expression of IDH1wt-his and IDH1R132C-flag is carried out in sf9 insect cells. Cells (25 g) are resuspended in 250 ml of 50 mM Tirs, 500 mM NaCl, pH7.4, at 4° C. with stirring. Cells are disrupted with 4 passes through an M-Y110 Micro fluidizer (Microfluidics) set to 500 psi, and then centrifuged at 22,000 rcf for 20 min at 4° C. The supernatant is harvested and loaded at 15 cm/h on a Histrap FF 5*1 ml column (GE) which is equilibrated with 50 mM Tirs, 500 mM NaCl, pH7.4. Host cell contaminants are removed by washing the column with equilibration buffer followed by equilibration buffer containing 20 mM imidazole and 60 mM imidazole to baseline. IDH1wt-his homodimer and IDH1wt-his/IDH1R132C-flag are eluted by equilibration buffer containing 250 mM imidazole. Fractions eluted by 250 mM imidazole are pooled together and loaded at 15 cm/h onto a column pre-packed with 10 ml ANTI-FLAG® M2 Affinity Gel (Sigma), the column is equilibrated with 50 mM Tris, 500 mM NaCl, pH7.4. After washing with equilibration buffer, IDH1wt-his/IDH1R132C-flag heterodimer is eluted by equilibration buffer containing flag peptide (0.2 mg/ml). Aliquots of IDH1wt-his/IDH1R132C-flag are flash frozen in liquid N2 and stored at −80° C. Same conditions are used for the purification of IDH1wt-his/IDH1R132H-flag.

[4] = IDH1 wt/R132H heterodimer, NADPH/NADP, not saturated, read-out: IDH1 wt/R132H NADPH/NADP IC50 not saturated
[5] = IDH1 wt/IDH1 R132H heterodimer, 300 μM NADP (saturated), read-out: IDH1 wt/R132H NADPH/NADP IC50 saturated

Chain of IDH2 R140Q (P48735 40-452 R140Q): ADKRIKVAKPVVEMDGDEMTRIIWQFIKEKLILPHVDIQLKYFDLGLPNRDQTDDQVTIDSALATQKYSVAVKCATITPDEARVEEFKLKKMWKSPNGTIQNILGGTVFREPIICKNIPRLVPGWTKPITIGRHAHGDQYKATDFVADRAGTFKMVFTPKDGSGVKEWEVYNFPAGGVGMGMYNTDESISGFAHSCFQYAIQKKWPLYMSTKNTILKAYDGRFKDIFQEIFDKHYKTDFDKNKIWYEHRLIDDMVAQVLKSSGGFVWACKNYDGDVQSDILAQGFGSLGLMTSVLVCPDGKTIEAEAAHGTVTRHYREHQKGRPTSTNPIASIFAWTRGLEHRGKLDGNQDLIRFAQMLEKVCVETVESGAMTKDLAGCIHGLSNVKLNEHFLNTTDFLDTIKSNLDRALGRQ

| Structure (SMILES) | IC50 ([1]; Homo sapiens, U-87 MG) [nM] | IC50 (IDH2 R140Q) [nM] | IC50 [2] [nM] | IC50 [3, 4] [nM] | IC50 [3, 5] [nM] | IC50 [1] [nM] |
| --- | --- | --- | --- | --- | --- | --- |
| CC(C)CNc1nc(NC2CCOCC2)nc(-c2cccc(C(F)(F)F)n2)n1 [Compound 75] | < 50 | 50 to 100 | – | – | – | – |
| Fc1cc(F)cc(Nc2nc(NC3CCC(F)(F)C3)nc(-c3cncc(Cl)n3)n2)c1 (stereo not shown) [Compound 109] | < 50 | < 50 | < 50 | < 50 | – | – |
| FC1(F)CCC(Nc2nc(NC3CCC(F)(F)C3)nc(-c3cncc(Cl)n3)n2)C1 (stereo not shown) [Compound 129] | < 50 | < 50 | < 50 | < 50 | – | – |
| C[C@@H](Nc1nc(NC2CCc3ccccc32)nc(-c2cccc(C(F)(F)F)n2)n1)C1CC1 (stereo partly shown) [Compound 135] | – | – | < 50 | < 50 | – | – |
| Fc1cc(F)cc(Nc2nc(NC3CCC(F)(F)C3)nc(-c3nc(F)ccc3F)n2)c1 (stereo not shown) [Compound 139] | < 50 | < 50 | < 50 | < 50 | – | – |
| FC1(F)CCC(Nc2nc(NC3CCC(F)(F)C3)nc(-c3nc(C(F)(F)F)cs3)n2)C1 (stereo not shown) [Compound 148] | < 50 | < 50 | < 50 | < 50 | – | – |
| CC(Cc1ccccc1)Nc1nc(N[C@H](C)C2CC2)nc(-c2cccc(C(F)(F)F)n2)n1 (stereo partly shown) [Compound 206] | – | – | < 50 | < 50 | – | – |
| FC1(F)CCC(Nc2nc(NC3CC(c4ccccc4)C3)nc(-c3cccc(C(F)(F)F)n3)n2)C1 (stereo not shown) [Compound 208] | – | – | < 50 | < 50 | – | – |
| FC1(F)CCC(Nc2nc(NC3CCN(c4ccccc4)C3)nc(-c3cccc(C(F)(F)F)n3)n2)C1 (stereo not shown) [Compound 219] | – | – | < 50 | < 50 | – | – |
| FC1(F)CCC(Nc2nc(NC3Cc4ccc(Br)cc4C3)nc(-c3cccc(C(F)(F)F)n3)n2)C1 (stereo not shown) [Compound 225] | – | – | < 50 | < 50 | – | – |
| FC1(F)CCC(Nc2nc(NC3Cc4cc(Br)cc(Br)c4C3)nc(-c3cccc(C(F)(F)F)n3)n2)C1 (stereo not shown) [Compound 254] | – | – | 50 to 100 | 50 to 100 | – | – |
| FC1(F)CC2(CC(Nc3nc(Nc4ccnc(C(F)(F)F)c4)nc(-c4cccc(C(F)(F)F)n4)n3)C2)C1 [Compound 257] | < 50 | < 50 | – | – | – | – |
| CC(C)(O)CNc1nc(Nc2ccnc(C3(C#N)CC3)c2)nc(-c2cccc(C(F)(F)F)n2)n1 [Compound 259] | < 50 | < 50 | – | 100 to 1000 | – | – |
| FC1(F)CC(Nc2nc(NC3CC(F)(F)C3)nc(-c3cccc(OC(F)(F)F)n3)n2)C1 [Compound 277] | 50 to 100 | 50 to 100 | – | 100 to 1000 | – | – |
| C[C@@H](Nc1nc(N[C@H](C)C2CC2)nc(-c2cncc(Cl)c2)n1)C1CC1 [Compound 278] | > 1000 | > 1000 | – | 100 to 1000 | – | – |
| C[C@@H](Nc1nc(N[C@H](C)C2CC2)nc(-c2cccc(N)n2)n1)C1CC1 [Compound 285] | > 1000 | > 1000 | – | 100 to 1000 | – | – |
| CC(C)(O)CNc1nc(Nc2ccnc(C#N)c2)nc(-c2cccc(C(F)(F)F)n2)n1 [Compound 288] | 100 to 1000 | 100 to 1000 | – | 100 to 1000 | – | – |
| FC1(F)CCC(Nc2nc(NC3CCC(F)(F)CC3)nc(-c3cccc(C4CC4)n3)n2)CC1 [Compound 305] | – | – | 100 to 1000 | > 1000 | – | – |
| FC1(F)CCC(Nc2nc(NC3CCC(F)(F)CC3)nc(-c3cc(C(F)(F)F)ccn3)n2)CC1 [Compound 318] | – | – | ≥ 1000 | > 1000 | – | – |
| CN1CCC(Nc2nc(NC3CCC(F)(F)C3)nc(-c3cccc(C(F)(F)F)n3)n2)C1 (stereo not shown) [Compound 326] | > 1000 | > 1000 | – | – | – | – |
| C[C@@H](Nc1nc(N[C@H](C)C(F)(F)F)nc(-c2cccc(C(F)(F)F)n2)n1)C(F)(F)F [Compound 335] | – | – | < 50 | – | < 50 | – |
| C[C@@H](Nc1nc(Nc2ccnc(C3(C#N)CC3)c2)nc(-c2cncc(C(F)F)n2)n1)C(F)(F)F [Compound 336] | – | – | < 50 | – | < 50 | – |
| C[C@H](Nc1nc(Nc2ccnc(C3(C#N)CC3)c2)nc(-c2cncc(C(F)F)n2)n1)C(F)(F)F [Compound 337] | – | – | < 50 | – | < 50 | – |
| N#CC1(c2cc(Nc3nc(NC4CCC(F)(F)CC4)nc(-c4cncc(C(F)F)n4)n3)ccn2)CC1 [Compound 338] | – | – | < 50 | – | 50 to 100 | – |
| FC1(F)CC[C@H](Nc2nc(Nc3ccnc(C(F)(F)F)c3)nc(-c3ccnc(C(F)(F)F)n3)n2)C1 [Compound 343] | < 50 | < 50 | – | – | 100 to 1000 | – |
| N#CC1(c2cc(Nc3nc(N[C@H]4CCC(F)(F)C4)nc(-c4nccc(C(F)(F)F)n4)n3)ccn2)CC1 [Compound 376] | < 50 | < 50 | – | – | > 1000 | – |
| C[C@@H](Nc1nc(N[C@H](C)C2CC2)nc(-c2cccc3[nH]ccc23)n1)C1CC1 [Compound 396] | – | 50 to 100 | – | – | > 1000 | 50 to 100 |
| CC(C)(O)CNc1nc(Nc2cc(F)cc(C(F)(F)F)c2)nc(-c2cccc(C(C)(F)F)n2)n1 [Compound 397] | < 50 | < 50 | – | – | 100 to 1000 | – |
| CC(C)(O)CNc1nc(Nc2cc(F)cc(C#N)c2)nc(-c2cccc(C(C)(F)F)n2)n1 [Compound 398] | < 50 | < 50 | – | – | 100 to 1000 | – |

From patent US10028961B2, “Therapeutically active compounds and their methods of use” (AGIOS PHARMACEUTICALS, INC., priority 2013, dated 2018)
